Counter-ions that a name gives are not always drawn.
System: RNA3WJ_0.0.0_5IB_3FAM (3WJ_0.0.0_5IB_3FAM RNA construct)
Assay: Thermal shift binding assay
Settings: for Melt. Temp. with cmpd / Shift melt. Temp.: RNA sequence 3WJ_0.0.0_5IB_FAM; for Melt. Temp. with cmpd: melting temperature in presence of compound; for Shift melt. Temp.: with cmpd minus without cmpd; for Temp. Shift: 1 μM RNA, 8 μM compound, 10 mM CacoK pH 7.2, 30 mM NaCl
Description: Purpose: Test binding of compounds for RNA three way junction (for example, a construct of 38 nt). Thermal shift assay based on established fluorescence quenching assay utilizing FAM as fluorescence tag and Iowa Black as quencher. Tags were attached at the 3′ and 5′ end, respectively. Stable formation of 3WJ upon compound binding would lead to quenching of the FAM fluorescence due to close proximity of the Iowa Black tag. Thermal unfolding leads to increase of fluorescence emission. Assay readout: FAM (465-510 nm) Thermal Shift.
Assay sample buffer used: 10 mM CacoK pH 7.2, 30 mM NaCl. Buffer preparation in Dnase/Rnase Free distilled water (Gibco Life Technologies).
Dilute the RNA 1:10 (final 10 μM) in Assay Buffer.
Heat up the diluted RNA up to 90° C. for 5 min (sealed Eppendorf Tube).
Cool down the RNA probe slowly to RT.
Dilute the compounds to 800 μM in DMSO (Assay: 8 μM). […]
Pipet 20 μL Sample Solution into Roche, Light Cycler480 Multiwell Plate96, white, REF 04729692001.
Measure the 96 plate with the LightCycler480 (Channel: 480/510 nm; Temperature: 41-91° C.).
Analyse measurement-data with the MeltingCurveGenotyping Mode.
Settings: Acquisition mode: continuous; Ramp rate: 0.1° C./sec; Acquisition: 6° C.
Curves are fitted with raw and normalized data.
Melting curves analysis show melting temperature (Tm) of ˜51° C. Range of RNA concentrations was tested and assay window was determined (conc. range of 0.5-1 μM yields best results). The choice of buffer also affected the Tm. RNA constructs were tested under different buffer conditions (especially in presence of salt) in the thermal shift assay. […] CacoK with 30 mM salt at 1 μM RNA conc. was used to assess compound effects on 3WJ stability. […] These conditions were used for screening test compounds.

Row | SMILES | Melt. Temp. with cmpd [°C] | Shift melt. Temp. | Temp. Shift
1 | CN(CCOCCOCCOCCNC(=O)CCC12c3cc(NC(=O)CCCCCCCN)ccc3C(c3ccc(NC(=O)CCCCCCCN)cc31)c1ccc(NC(=O)CCCCCCCN)cc12)C(=O)[C@@H]1C[C@H](N=[N+]=[N-])CN1C(=O)COc1ccc2c(=O)oc(=O)n(C)c2c1 [ARK000026, N,N′,N″-(9-(1-((2S,4S)-4-azido-1-(2-((1-methyl-2,4-dioxo-1,4-dihydro-2H-benzo[d][1,3]oxazin-7-yl)oxy)acetyl)pyrrolidin-2-yl)-2,14-dimethyl-1,15-dioxo-5,8,11-trioxa-2,14-diazaheptadecan-17-yl)-9,10-dihydro-9,10-[1,2]benzenoanthracene-2,7,15-triyl)tris(8-aminooctanamide)] | 60.9 | −1.2 °C | –
2 | N[C@@H](Cc1c[nH]cn1)C(=O)Nc1ccc2c(c1)C1c3cc(NC(=O)[C@@H](N)Cc4c[nH]cn4)ccc3C2c2ccc(NC(=O)[C@@H](N)Cc3cnc[nH]3)cc21 [ARK000017, (2S,2′S,2″S)—N,N′,N″-(9,10-dihydro-9,10-[1,2]benzenoanthracene-2,7,15-triyl)tris(2-amino-3-(1H-imidazol-4-yl)propanamide)hydrochloride] | 60.6 | −0.6 °C | –
3 | CC(C)(C)OC(=O)NCCCC[C@H](NC(=O)OC(C)(C)C)C(=O)Nc1ccc2c(c1)C1(CCC(=O)NCCOCCOCCN)c3cc(NC(=O)[C@@H](CCCCNC(=O)OC(C)(C)C)NC(=O)OC(C)(C)C)ccc3C2c2ccc(NC(=O)[C@@H](CCCCNC(=O)OC(C)(C)C)NC(=O)OC(C)(C)C)cc21 [ARK000023] | 60.7 | +0.6 °C | –
4 | CCOC(=O)c1ccccc1NC(=O)N1CCCN(Cc2csc(C)n2)CC1 [ARK000021] | 40.5 | −19.0 °C | –
5 | CN(c1ccc(-c2ccc(-c3cn[nH]c3)cc2O)nn1)C1CC(C)(C)NC(C)(C)C1 [ARK000011] | 60.3 | −1.4 °C | –
6 | CN(CCOCCN(C)C(=O)[C@@H]1C[C@H](N=[N+]=[N-])CN1C(=O)COc1ccc2c(=O)oc(=O)n(C)c2c1)C(=O)CCC12c3cc(NC(=O)CCCCCCCN)ccc3C(c3ccc(NC(=O)CCCCCCCN)cc31)c1ccc(NC(=O)CCCCCCCN)cc12 [ARK000024, N,N′,N″-(9-(3-((2-(2-((2S,4S)-4-azido-N-methyl-1-(2-((1-methyl-2,4-dioxo-1,4-dihydro-2H-benzo[d][1,3]oxazin-7-yl)oxy)acetyl)pyrrolidine-2-carboxamido)ethoxy)ethyl)(methyl)amino)-3-oxopropyl)-9,10-dihydro-9,10-[1,2]benzenoanthracene-2,7,15-triyl)tris(8-aminooctanamide)] | 60.7 | +0.3 °C | –
7 | CC(C)(C)OC(=O)NCCCC[C@H](NC(=O)OC(C)(C)C)C(=O)Nc1ccc2c(c1)C1(CCC(=O)NCCOCCOCCN)c3cc(NC(=O)[C@H](CCCCNC(=O)OC(C)(C)C)NC(=O)OC(C)(C)C)ccc3C2c2ccc(NC(=O)[C@H](CCCCNC(=O)OC(C)(C)C)NC(=O)OC(C)(C)C)cc21 [ARK000022] | 60.2 | +0.4 °C | –
8 | N[C@H](Cc1c[nH]cn1)C(=O)Nc1ccc2c(c1)C1c3cc(NC(=O)[C@H](N)Cc4c[nH]cn4)ccc3C2c2ccc(NC(=O)[C@H](N)Cc3cnc[nH]3)cc21 [ARK000018, (2R,2′R,2″R)—N,N′,N″-(9,10-dihydro-9,10-[1,2]benzenoanthracene-2,7,15-triyl)tris(2-amino-3-(1H-imidazol-4-yl)propanamide) hydrochloride] | 60.8 | +0.2 °C | –
9 | O=C(O)CCC12C3=C(CNCC3)C(c3ccccc31)c1ccccc12 [ARK000020] | 60.2 | +0.3 °C | –
10 | NCCCC[C@@H](N)C(=O)Nc1ccc2c(c1)C1c3cc(NC(=O)[C@H](N)CCCCN)ccc3C2c2ccc(NC(=O)[C@H](N)CCCCN)cc21 [ARK000016, (2R,2′R,2″R)—N,N′,N″-(9,10-dihydro-9,10-[1,2]benzenoanthracene-2,7,15-triyl)tris(2,6-diaminohexanamide)] | 83.8 | +21.3 °C | –
11 | CN(CCOCCOCCOCCNC(=O)CCC12c3cc(NC(=O)CCCCCCCN)ccc3C(c3ccc(NC(=O)CCCCCCCN)cc31)c1ccc(NC(=O)CCCCCCCN)cc12)C(=O)[C@@H]1C[C@H](N=[N+]=[N-])CN1C(=O)c1ccc(S(=O)(=O)F)cc1 [ARK000032, 4-((2S,4S)-4-azido-2-(methyl(12-methyl-13-oxo-15-(2,7,15-tris(8-aminooctanamido)-9,10-[1,2]benzenoanthracen-9(10H)-yl)-3,6,9-trioxa-12-azapentadecyl)carbamoyl)pyrrolidine-1-carbonyl)benzenesulfonyl fluoride] | 75.1 | +15.0 °C | +15.0 °C
12 | C#CCCCC(=O)NC[C@H]1O[C@H](O[C@H]2[C@H](O)[C@@H](O[C@H]3O[C@H](CN=[N+]=[N-])[C@@H](O)[C@H](N)[C@H]3O)[C@H](N)C[C@@H]2N)[C@H](O)[C@@H](O)[C@@H]1O [ARK000009] | 62.9 | +0.6 °C | –
13 | CN(CCOCCOCCNC(=O)CCC12c3cc(NC(=O)CCCCCCCN)ccc3C(c3ccc(NC(=O)CCCCCCCN)cc31)c1ccc(NC(=O)CCCCCCCN)cc12)C(=O)[C@@H]1C[C@H](N=[N+]=[N-])CN1C(=O)c1ccc(S(=O)(=O)F)cc1 [ARK000031, N,N′,N″-(9-(1-((2S,4S)-4-azido-1-(3-(4-(fluorosulfonyl)benzoyl)pyrrolidin-2-yl)-2,11-dimethyl-1,12-dioxo-5,8-dioxa-2,11-diazatetradecan-14-yl)-9,10-dihydro-9,10-[1,2]benzenoanthracene-2,7,15-triyl)tris(azanediyl))tris(8-aminooctanamide)] | 84.1 | +24.1 °C | +24.1 °C
14 | CN(CCOCCOCCNC(=O)CCC12c3cc(NC(=O)CCCCCCCN)ccc3C(c3ccc(NC(=O)CCCCCCCN)cc31)c1ccc(NC(=O)CCCCCCCN)cc12)C(=O)[C@@H]1C[C@H](N=[N+]=[N-])CN1C(=O)COc1ccc2c(=O)oc(=O)n(C)c2c1 [ARK000025, N,N′,N″-(9-(1-((2S,4S)-4-azido-1-(2-((1-methyl-2,4-dioxo-1,4-dihydro-2H-benzo[d][1,3]oxazin-7-yl)oxy)acetyl)pyrrolidin-2-yl)-2,11-dimethyl-1,12-dioxo-5,8-dioxa-2,11-diazatetradecan-14-yl)-9,10-dihydro-9,10-[1,2]benzenoanthracene-2,7,15-triyl)tris(8-aminooctanamide)] | 50.4 | −10.2 °C | –
15 | CC1(C)CC(Oc2ccc(-c3ccc(-c4cn[nH]c4)cc3O)nn2)CC(C)(C)N1 [ARK000010] | 61.4 | −0.2 °C | –
16 | O=C(O)CCC12C3=C(CCNC3)C(c3ccccc31)c1ccccc12 [ARK000019] | 60.0 | −0.3 °C | –
17 | CN(CCOCCN(C)C(=O)[C@@H]1C[C@H](N=[N+]=[N-])CN1C(=O)c1ccc2c(=O)oc(=O)n(C)c2c1)C(=O)CCC12c3cc(NC(=O)CCCCCCCN)ccc3C(c3ccc(NC(=O)CCCCCCCN)cc31)c1ccc(NC(=O)CCCCCCCN)cc12 [ARK000033, N,N′,N″-(9-(3-((2-(2-((2S,4S)-4-azido-N-methyl-1-(1-methyl-2,4-dioxo-1,4-dihydro-2H-benzo[d][1,3]oxazine-7-carbonyl)pyrrolidine-2-carboxamido)ethoxy)ethyl)(methyl)amino)-3-oxopropyl)-9,10-dihydro-9,10-[1,2]benzenoanthracene-2,7,15-triyl)tris(8-aminooctanamide)] | 62.4 | +0.9 °C | –
18 | CN(CCOCCN(C)C(=O)[C@@H]1C[C@H](N=[N+]=[N-])CN1C(=O)c1ccc(S(=O)(=O)F)cc1)C(=O)CCC12c3cc(NC(=O)CCCCCCCN)ccc3C(c3ccc(NC(=O)CCCCCCCN)cc31)c1ccc(NC(=O)CCCCCCCN)cc12 [ARK000030] | 64.8 | +4.8 °C | –
19 | CN(CCOCCN(C)C(=O)[C@@H]1C[C@H](N=[N+]=[N-])CN1C(=O)CCc1ccc(S(=O)(=O)F)cc1)C(=O)CCC12c3cc(NC(=O)CCCCCCCN)ccc3C(c3ccc(NC(=O)CCCCCCCN)cc31)c1ccc(NC(=O)CCCCCCCN)cc12 [ARK000027] | 83.4 | +23.7 °C | –

Source: patent US20220402883A1, “COMPOUNDS AND METHODS FOR MODULATING RNA FUNCTION” (Arrakis Therapeutics, Inc., priority 2016, published 2022)
